In publication PMC7503509, “Polydopamine Linking Substrate for AMPs: Characterisation and Stability on Ti6Al4V” (Materials, 2020):
Read-outs that look alike come from different tables or passages of the source. No end group written: not given here.

Key:
[1] = tested on: Pseudomonas aeruginosa (P. aeruginosa, PAO1); assay type: cell-based; conditions: PAO1, 18 h
Protocol: (§1) The minimum inhibition concentration (MIC) is used to determine the lowest concentration of antimicrobial agent needed to inhibit the visible growth of a bacteria strain after overnight incubation. All the bacteria strains were kindly provided by Dr Mark Webber of the Quadram Institute Bioscience (Norwich, UK; Escherichia coli (E. coli, […]), Pseudomonas aeruginosa (P. aeruginosa, PAO1) and Staphylococcus aureus (S. aureus, […]/NCTC8532)). Lysogen broth (LB broth) and agar were purchased from Sigma-Aldrich, Merck Life Science UK Limited, Dorset, UK. Fresh LB agar culture plates were prepared by pouring ≈10 mL of an autoclaved warm mixture of LB broth (2.5%) and bacteriological agar (1.5%) dissolved in dH2O. The agar plate was streaked and incubated overnight at 36 °C. A single bacterial colony was chosen and grown in 5 mL broth overnight under agitation at 36 °C. Subsequently, 50 μL of LB broth was added to wells 2-12 of a 96-well culture plate. AMPs were diluted to a concentration of 256 μg/mL, added to well 1, and diluted two-fold down to column 11. Column 12 was left empty, with no AMPs added. Then, 50 μL of the diluted overnight bacteria culture was added to the wells and incubated at 36 °C for 18 h to allow bacteria to grow. After incubation, the well plates were examined for bacterial growth and the lowest concentration of AMPs where clear liquid was observed was assumed to be the minimum inhibitory concentration. Three measurements for each peptide and against each type of bacteria were performed and the average values were obtained.

[2] = tested on: Escherichia coli (E. coli, I364); assay type: cell-based; conditions: I364, 18 h
Protocol: as §1

[3] = tested on: E. coli (I364), P. aeruginosa (PAO1), S. aureus (F77); assay type: cell-based; conditions: 18 h
Protocol: as §1

[4] = tested on: Staphylococcus aureus (S. aureus, F77/NCTC8532); assay type: cell-based; conditions: NCTC8532, 18 h
Protocol: as §1

[5] = tested on: Pseudomonas aeruginosa (P. aeruginosa, PAO1); conditions: comparison value for LL-37; cited from earlier work
From the text: Table 3 MIC values for the designed KR12 analogues compared to the LL-37 human cathelicidin. | column: MIC Values (μM) / P. aeruginosa (PAO1)

[6] = tested on: Staphylococcus aureus (S. aureus, F77/NCTC8532); conditions: comparison value for LL-37; cited from earlier work
From the text: Table 3 MIC values for the designed KR12 analogues compared to the LL-37 human cathelicidin. | column: MIC Values (μM) / S. aureus ([…])

[7] = tested on: E. coli (I364), P. aeruginosa (PAO1), S. aureus (F77); conditions: mean of the literature values for LL-37; cited from earlier work
From the text: Table 3 MIC values for the designed KR12 analogues compared to the LL-37 human cathelicidin. | column: MIC Values (μM) / Geometric Mean

[8] = tested on: Escherichia coli (E. coli, I364); conditions: comparison value for LL-37; cited from earlier work
From the text: Table 3 MIC values for the designed KR12 analogues compared to the LL-37 human cathelicidin. | column: MIC Values (μM) / E. coli ([…])

Substance	MIC Values P. aeruginosa (PAO1) [1] [µM]	MIC Values E. coli (I364) [2] [µM]	MIC Values Geometric Mean [3] [µM]	MIC Values S. aureus (F77) [4] [µM]	MIC Values P. aeruginosa (PAO1) [5] [µM]	MIC Values S. aureus (F77) [6] [µM]	MIC Values Geometric Mean [7] [µM]	MIC Values E. coli (I364) [8] [µM]
KIRVQRIKDFLR [KR12/32]	4	4	13.33	32	–	–	–	–
LL-37: human cathelicidin, native peptide of KR12	–	–	–	–	8	4	6.67	8
KIRVRIKFR [KR12/32-5911]	4	4	3.33	2	–	–	–	–
KRIVQRIKDFLR [KR12, reference compound]	2	2	4.0	8	–	–	–	–
KRIVRIKFR [KR12-5911]	2	0.5	3.5	8	–	–	–	–
